Measured values as given in patent US10464896B2, “Efflux-pump inhibitors and therapeutic uses thereof” (Basilea Pharmaceutica International AG, priority 2015, dated 2019).

Test system: E. coli ATCC25922
Assay: Antibacterial activity in combination with minocycline (growth inhibition)
Type: cell-based
Details: Escherichia coli, ATCC25922, compound at 25 μM; minocycline 0.25 μg/mL; OD625 23 h minus 1 h; read-out: residual growth of E. coli ATCC25922 (% of uninhibited control) with minocycline
Outline: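 Test compound combined with fixed subinhibitory partner antibiotic: linezolid 128 μg/mL for either strain, minocycline 0.25 μg/mL (E. coli) or 8 μg/mL (P. aeruginosa), in caMHB shaken at 37 °C. Residual growth as % of inhibitor-free control, from OD625 at 23 h minus 1 h.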

Row | SMILES | activity at 25 µM
1 | C=CCOc1cc(/C=C/c2ccncc2C#N)cc(CNCC2CCNC2)c1 (centres unmarked) [Example 306] | ≤ 10%
2 | C=CCOc1cc(/C=C/c2ccc(C#N)cn2)cc(CNCC2CCNC2)c1 (centres unmarked) [Example 307] | ≤ 10%
3 | N#Cc1ccc(/C=C/c2cccc(CNCC3CNC3)c2)cc1C(F)(F)F [Example 308] | ≤ 10%
4 | C=CCOc1cc(/C=C/c2cc(C#N)cc(C(F)(F)F)c2)cc(CNCC2CNC2)c1 [Example 309] | ≤ 10%
5 | C=CCOc1cc(/C=C/c2ccc(C#N)cc2C(F)(F)F)cc(CNCC2CNC2)c1 [Example 310] | ≤ 10%
6 | C=CCOc1cc(/C=C/c2ccc(C(F)(F)F)cc2C#N)cc(CNCC2CNC2)c1 [Example 311] | ≤ 10%
7 | N#Cc1ccc(/C=C/c2cccc(CNCC3CNC3)c2)c(C(F)(F)F)c1 [Example 312] | ≤ 10%
8 | C=CCOc1cc(/C=C/c2ccc(C#N)cc2C(F)(F)F)cc(CNCC2CCNC2)c1 (centres unmarked) [Example 313] | ≤ 10%
9 | C=CCOc1cc(/C=C/c2ncccc2C#N)cc(CNCC2CCNC2)c1 (centres unmarked) [Example 315] | ≤ 10%
10 | C=CCOc1cc(/C=C/c2cccs2)cc(CNCC2CNC2)c1 [Example 317] | ≤ 10%
11 | C=CCOc1cc(/C=C/c2ccsc2)cc(CNCC2CNC2)c1 [Example 318] | ≤ 10%
12 | C=CCOc1cc(/C=C/c2ccc(C(F)(F)F)c(C#N)c2)cc(CNCC2CNC2)c1 [Example 321] | ≤ 10%
13 | C=CCOc1cc(CCc2ccc(OC)cc2OC)cc(CNCC2CNC2)c1 [Example 322] | ≤ 10%
14 | C=CCOc1cc(/C=C/c2ccnc(C#N)c2)cc(CNCC2CCNC2)c1 (centres unmarked) [Example 324] | ≤ 10%
15 | C=CCOc1cc(/C=C/c2cncc(C#N)c2)cc(CNCC2CCNC2)c1 (centres unmarked) [Example 325] | ≤ 10%
16 | C=CCOc1cc(/C=C/c2ccc(C#N)nc2)cc(CNCC2CCNC2)c1 (centres unmarked) [Example 326] | ≤ 10%
17 | C=CCOc1cc(/C=C/c2csc(C(C)C)n2)cc(CNCC2CNC2)c1 [Example 327] | ≤ 10%
18 | C=CCOc1cc(/C=C/c2c(C#N)cccc2C(F)(F)F)cc(CNCC2CNC2)c1 [Example 328] | ≤ 10%
19 | C=CCOc1cc(/C=C/c2cc(C#N)ccn2)cc(CNCC2CCNC2)c1 (centres unmarked) [Example 329] | ≤ 10%
20 | C=CCOc1cc(/C=C/c2csc(C(C)C)n2)cc(CNCC2CCNC2)c1 (centres unmarked) [Example 330] | ≤ 10%
21 | CC(C)COc1cc(/C=C/c2ccccn2)cc(CNCC2CCNC2)c1 (centres unmarked) [Example 333] | ≤ 10%
22 | CC(C)COc1cc(/C=C/c2ccncc2)cc(CNCC2CCNC2)c1 (centres unmarked) [Example 334] | ≤ 10%
23 | C=CCOc1cc(/C=C/c2cccnc2)cc(CNCC2CNC2)c1 [Example 335] | ≤ 10%

Row | SMILES | activity at 25 µM
24 | C=CCOc1cc(/C=C/c2ccccn2)cc(CNCC2CNC2)c1 [Example 336] | ≤ 10%
25 | C=CCOc1cc(/C=C/c2ccncc2)cc(CNCC2CNC2)c1 [Example 338] | ≤ 10%
26 | C=CCOc1cc(/C=C/c2ccc(C(N)=O)cc2)cc(CNCC2CNC2)c1 [Example 339] | ≤ 10%
27 | C=CCOc1cc(/C=C/c2cccc(C(N)=O)c2)cc(CNCC2CNC2)c1 [Example 340] | ≤ 10%
28 | Clc1ccc(/C=C/c2cc(CNCC3CCNC3)cc(OCCc3ccccn3)c2)c(Br)c1 (centres unmarked) [Example 341] | ≤ 10%
29 | NC(=O)COc1cc(/C=C/c2ccc(Cl)cc2Br)cc(CNCC2CCNC2)c1 (centres unmarked) [Example 342] | ≤ 10%
30 | Clc1ccc(/C=C/c2cc(CNCC3CCNC3)cc(OCc3c[nH]cn3)c2)c(Br)c1 (centres unmarked) [Example 344] | ≤ 10%
31 | Cn1cnc(COc2cc(/C=C/c3ccc(Cl)cc3Br)cc(CNCC3CCNC3)c2)c1 (centres unmarked) [Example 345] | ≤ 10%
32 | Clc1ccc(/C=C/c2cc(CNCC3CCNC3)cc(OCc3ccccn3)c2)c(Br)c1 (centres unmarked) [Example 346] | ≤ 10%
33 | Cc1cc(COc2cc(/C=C/c3ccc(Cl)cc3Br)cc(CNCC3CCNC3)c2)no1 (centres unmarked) [Example 347] | ≤ 10%
34 | C=CCOc1cc(/C=C/c2nc(C(F)(F)F)cs2)cc(CNCC2CNC2)c1 [Example 348] | ≤ 10%
35 | C=CCOc1cc(/C=C/c2ccc(Cl)cc2Br)cc(CNC(=O)C2CCNCC2)c1 [Example 354, N-[[3-allyloxy-5-[(E)-2-(2-bromo-4-chloro-phenyl)vinyl]phenyl]methyl]piperidine-4-carboxamide] | ≤ 10%
36 | C=CCOc1cc(/C=C/c2nc(C3CC3)cs2)cc(CNCC2CCNC2)c1 (centres unmarked) [Example 355] | ≤ 10%
37 | C=CCOc1cc(/C=C/c2nc(C3CC3)cs2)cc(CNCC2CNC2)c1 [Example 356] | ≤ 10%
38 | C=CCOc1cc(CNCC2CCNC2)cc(CNC(=O)c2ccc(C(C)(C)C)cc2)c1 (centres unmarked) [Example 357] | ≤ 10%
39 | Cc1nc(COc2cc(/C=C/c3ccc(Cl)cc3Br)cc(CNCC3CCNC3)c2)cs1 (centres unmarked) [Example 359] | ≤ 10%
40 | Clc1ccc(/C=C/c2cc(CNCC3CCNC3)cc(OCc3ccncc3)c2)c(Br)c1 (centres unmarked) [Example 360] | ≤ 10%
41 | Nc1nc(COc2cc(/C=C/c3ccc(Cl)cc3Br)cc(CNCC3CCNC3)c2)cs1 (centres unmarked) [Example 361] | ≤ 10%
42 | C=CCOc1cc(/C=C/c2nc(C(C)C)cs2)cc(CNCC2CNC2)c1 [Example 362] | ≤ 10%
43 | C=CCOc1cc(CNCC2CCNC2)cc(CNS(=O)(=O)c2ccc(C(C)(C)C)cc2)c1 (centres unmarked) [Example 364] | ≤ 10%
44 | C=CCOc1cc(/C=C/c2ccc(Cl)cc2Br)cc(CNC(=O)[C@@H]2CCNC2)c1 [Example 367] | ≤ 10%
45 | C=CCOc1cc(CNCC2CNC2)cc(CNS(=O)(=O)c2ccc(C(C)(C)C)cc2)c1 [Example 369, N-[[3-allyloxy-5-[(azetidin-3-ylmethylamino)methyl]phenyl]methyl]-4-tert-butyl-benzenesulfonamide] | ≤ 10%
46 | C=CCOc1cc(CNCC2CNC2)cc(C(=O)NCc2ccc(Cl)cc2Br)c1 [Example 370] | ≤ 10%

Row | SMILES | activity at 25 µM
47 | C=CCOc1cc(/C=C/c2ccc(Cl)cc2Br)cc(CNC(=O)CNCC2CNC2)c1 [Example 371] | ≤ 10%
48 | C=CCOc1cc(CNCC2CCNC2)cc(C(=O)Nc2ccc(Cl)cc2Br)c1 (centres unmarked) [Example 373] | ≤ 10%
49 | CC(C)COc1cc(/C=C/c2ccccc2C(N)=O)cc(CNCC2CCNC2)c1 (centres unmarked) [Example 375] | ≤ 10%
50 | C=CCOc1cc(CNCC2CNC2)cc(CNC(=O)c2ccc(Cl)cc2Br)c1 [Example 376] | ≤ 10%
51 | CC(C)(C)c1ccc(S(=O)(=O)NCc2cc(CNCC3CCNC3)cc(OCCc3c[nH]cn3)c2)cc1 (centres unmarked) [Example 377] | ≤ 10%
52 | C=CCOc1cc(CNCC2CCNC2)cc(C(=O)NCc2ccc(Cl)cc2Br)c1 (centres unmarked) [Example 380] | ≤ 10%
53 | O=c1[nH]nc(COc2cc(/C=C/c3ccc(Cl)cc3Br)cc(CNCC3CCNC3)c2)o1 (centres unmarked) [Example 381] | ≤ 10%
54 | CC(C)COc1cc(C[N+](C)(C)CC2CNC2)cc(OCc2ccc(Cl)cc2Br)c1 [Example 382] | ≤ 10%
55 | C=CCOc1cc(C[N+](C)(C)CC2CCNC2)cc(OCc2ccc(Cl)cc2Br)c1 (centres unmarked) [Example 388] | ≤ 10%
56 | NC(=O)CCOc1cc(/C=C/c2ccc(Cl)cc2Br)cc(CNCC2CCNC2)c1 (centres unmarked) [Example 390] | ≤ 10%
57 | C=CCOc1cc(CNCC2CNC2)cc(C(=O)Nc2nc(C(C)(C)C)cs2)c1 [Example 392] | ≤ 10%
58 | C=CCOc1cc(CNCC2CNC2)cc(C(=O)Nc2ccc(Cl)cc2Br)c1 [Example 394, 3-allyloxy-5-[(azetidin-3-ylmethylamino)methyl]-N-(2-bromo-4-chloro-phenyl)benzamide] | ≤ 10%
59 | C=CCOc1cc(C[N+](C)(C)CC2CNC2)cc(OCc2ccc(Cl)cc2Br)c1 [Example 395] | ≤ 10%
60 | C=CCOc1cc(/C=C/c2ccc(Cl)cc2Br)cc(C[N+](C)(C)CC2CCNC2)c1 (centres unmarked) [Example 396] | ≤ 10%
61 | CC(C)COc1ccc(/C=C/c2ccc(Br)cc2Cl)cc1CNCC1CCNC1 (centres unmarked) [Example 397] | ≤ 10%
62 | C[N+](C)(Cc1cc(/C=C/c2ccc(Cl)cc2Br)cc(OCCc2c[nH]cn2)c1)CC1CCNC1 (centres unmarked) [Example 398] | ≤ 10%
63 | CC(C)(C)c1ccc(S(=O)(=O)Nc2ccc(CNCC3CCNC3)cc2OCCc2c[nH]cn2)cc1 (centres unmarked) [Example 399, 4-tert-butyl-N-[2-[2-(1H-imidazol-4-yl)ethoxy]-4-[(pyrrolidin-3-ylmethylamino)methyl]phenyl]benzenesulfonamide] | ≤ 10%
64 | CC(C)COc1ccc(/C=C/c2ccc(Br)cc2Cl)cc1CNCC1CNC1 [Example 401] | ≤ 10%
65 | C=CCOc1cc(/C=C/c2ccc(Cl)cc2Br)cc(C[N+](C)(C)CC2CNC2)c1 [Example 402] | ≤ 10%
66 | C=CCOc1ccc(OCc2ccc(Br)cc2Cl)cc1CNCC1CCNC1 (centres unmarked) [Example 405] | ≤ 10%
67 | C=CCOc1ccc(OCc2ccc(Br)cc2Cl)cc1CNCC1CNC1 [Example 406] | ≤ 10%
68 | C=CCOc1ccc(/C=C/c2ccc(Br)cc2Cl)cc1CNCC1CCNC1 (centres unmarked) [Example 407] | ≤ 10%
69 | C[N+](C)(Cc1cc(/C=C/c2ccc(Cl)cc2Br)cc(OCCc2c[nH]cn2)c1)CC1CNC1 [Example 408] | ≤ 10%

Same assay, conditions: Escherichia coli, ATCC25922, compound at 50 μM; minocycline 0.25 μg/mL; OD625 23 h minus 1 h; read-out: residual growth of E. coli ATCC25922 (% of uninhibited control) with minocycline

Row | SMILES | activity at 50 µM
70 | Clc1ccc(/C=C/c2cc(CNCC3CCNC3)cc(OCc3ccccn3)c2)c(Br)c1 (centres unmarked) [Example 346] | ≤ 50%
71 | O=C(NCc1cc(CNCC2CCNC2)cc(OCCc2c[nH]cn2)c1)c1nc(C2CC2)cs1 (centres unmarked) [Example 391] | ≤ 50%
72 | O=C(NCc1cc(CNCC2CCNC2)cc(OCCc2c[nH]cn2)c1)c1ccc(Cl)cc1Br (centres unmarked) [Example 393] | ≤ 50%
73 | C=CCOc1cc(CNCC2CNC2)cc(OCCc2ccccn2)c1 [Example 409] | ≤ 50%
74 | C=CCOc1cc(CNCC2CCNC2)cc(OCCc2ccccn2)c1 (centres unmarked) [Example 410] | ≤ 50%
